Data published in ChEMBL document CHEMBL1909046, “DrugMatrix in vitro pharmacology data”.

Experiments:
[1] = DRUGMATRIX: Calcium Channel Type L, Benzothiazepine radioligand binding (ligand: [3H] Diltiazem); type: cell membranes, Rattus norvegicus, Wistar, Brain, Membrane; conditions: Not Active = under 50% inhibition at 10 µM
[2] = DRUGMATRIX: Serotonin (5-Hydroxytryptamine) 5-HT3 radioligand binding (ligand: [3H] GR-65630); type: cell membranes, Membrane; conditions: hek293, Not Active = under 50% inhibition at 10 µM
Substance-K receptor = molecular target: T1, Substance-K receptor (Homo sapiens, UniProt P21452); type: cell membranes, CHO, Membrane; note: in other assays of this panel Not Active means under 50% inhibition at 10 µM
T1 sequence (P21452 whole entry): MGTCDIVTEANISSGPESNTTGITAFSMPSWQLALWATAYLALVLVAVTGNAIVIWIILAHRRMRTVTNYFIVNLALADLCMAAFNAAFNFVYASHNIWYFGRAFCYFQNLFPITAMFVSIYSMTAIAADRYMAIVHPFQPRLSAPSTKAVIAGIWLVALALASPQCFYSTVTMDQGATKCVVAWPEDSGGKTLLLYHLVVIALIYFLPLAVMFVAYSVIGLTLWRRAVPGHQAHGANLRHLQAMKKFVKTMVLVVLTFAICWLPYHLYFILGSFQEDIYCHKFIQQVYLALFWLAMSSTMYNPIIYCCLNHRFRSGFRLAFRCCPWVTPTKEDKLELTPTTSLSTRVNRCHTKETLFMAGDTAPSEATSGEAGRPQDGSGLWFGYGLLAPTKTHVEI

Leukotriene C4 synthase = molecular target: T2, Leukotriene C4 synthase (Cavia porcellus, UniProt A6XA80); type: tissue-based, Lung;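 note: enzyme inhibition assay of leukotriene C4 synthase, using LTA4 as the substrate; in other assays of this panel Not Active means under 50% inhibition at 10 µM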
T2 sequence (A6XA80 whole entry): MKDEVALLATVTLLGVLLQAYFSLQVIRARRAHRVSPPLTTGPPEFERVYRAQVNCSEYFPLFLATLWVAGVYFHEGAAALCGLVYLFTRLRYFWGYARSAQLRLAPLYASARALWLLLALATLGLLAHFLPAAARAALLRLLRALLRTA

Neutrophil elastase = molecular target: T3, Neutrophil elastase (Homo sapiens, UniProt P08246); type: tissue-based;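 note: inhibition of neutrophil elastase enzyme activity, measured with a p-nitroanilide-linked peptide substrate; in other assays of this panel Not Active means under 50% inhibition at 10 µM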
T3 sequence (P08246 whole entry): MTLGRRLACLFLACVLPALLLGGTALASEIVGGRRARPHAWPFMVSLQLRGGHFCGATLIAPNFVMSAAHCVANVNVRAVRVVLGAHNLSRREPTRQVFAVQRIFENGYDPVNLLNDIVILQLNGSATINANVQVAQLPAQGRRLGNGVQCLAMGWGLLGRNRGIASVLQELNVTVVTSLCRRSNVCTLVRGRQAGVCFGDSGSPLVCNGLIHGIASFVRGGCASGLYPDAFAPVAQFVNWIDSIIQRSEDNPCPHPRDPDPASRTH

[3] = molecular target: Voltage-gated inwardly rectifying potassium channel KCNH2 (Homo sapiens, UniProt Q12809); conditions: hek293; note: in other assays of this panel Not Active means under 50% inhibition at 10 µM
Voltage-gated inwardly rectifying potassium channel KCNH2, sequence (Q12809 whole entry): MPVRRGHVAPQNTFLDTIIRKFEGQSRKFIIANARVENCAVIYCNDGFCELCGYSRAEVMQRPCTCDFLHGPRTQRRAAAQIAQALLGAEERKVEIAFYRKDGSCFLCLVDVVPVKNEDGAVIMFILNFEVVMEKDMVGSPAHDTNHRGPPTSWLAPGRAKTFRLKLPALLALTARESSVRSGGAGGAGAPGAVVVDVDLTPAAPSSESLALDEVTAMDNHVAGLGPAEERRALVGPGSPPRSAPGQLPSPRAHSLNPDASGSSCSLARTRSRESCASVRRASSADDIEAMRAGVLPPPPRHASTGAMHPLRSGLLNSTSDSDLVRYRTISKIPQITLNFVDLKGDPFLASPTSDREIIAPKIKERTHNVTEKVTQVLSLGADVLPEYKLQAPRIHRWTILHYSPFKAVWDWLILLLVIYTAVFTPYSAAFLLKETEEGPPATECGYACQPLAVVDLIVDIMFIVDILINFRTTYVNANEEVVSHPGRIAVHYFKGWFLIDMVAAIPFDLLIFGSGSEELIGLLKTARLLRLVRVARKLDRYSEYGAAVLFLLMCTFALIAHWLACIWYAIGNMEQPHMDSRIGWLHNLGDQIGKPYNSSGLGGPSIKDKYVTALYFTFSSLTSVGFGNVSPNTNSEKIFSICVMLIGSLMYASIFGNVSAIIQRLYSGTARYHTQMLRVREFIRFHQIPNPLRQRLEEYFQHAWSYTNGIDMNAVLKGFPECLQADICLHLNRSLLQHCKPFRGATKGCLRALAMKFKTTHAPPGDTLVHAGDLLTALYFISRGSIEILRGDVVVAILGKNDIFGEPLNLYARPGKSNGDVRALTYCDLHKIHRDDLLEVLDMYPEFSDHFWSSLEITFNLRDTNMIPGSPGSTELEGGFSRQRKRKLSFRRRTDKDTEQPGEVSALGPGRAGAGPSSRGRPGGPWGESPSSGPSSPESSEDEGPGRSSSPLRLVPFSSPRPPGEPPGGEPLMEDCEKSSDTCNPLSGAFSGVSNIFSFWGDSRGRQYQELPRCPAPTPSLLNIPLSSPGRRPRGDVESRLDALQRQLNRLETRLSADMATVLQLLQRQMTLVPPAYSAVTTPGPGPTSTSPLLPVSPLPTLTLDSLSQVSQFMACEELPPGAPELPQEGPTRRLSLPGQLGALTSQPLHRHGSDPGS

CC(C)CN(C[C@@H](O)[C@H](Cc1ccccc1)NC(=O)O[C@H]1CCOC1)S(=O)(=O)c1ccc(N)cc1
Not Active: IC50 [1] | Ki [1] | IC50 [2] | Ki [2] | IC50 (Substance-K receptor; cho) | IC50 (Leukotriene C4 synthase) | IC50 (Neutrophil elastase) | IC50 [3] | Ki [3]

c1ccc(Nc2ccc(Nc3ccccc3)cc2)cc1
Not Active: IC50 [1] | Ki [1] | IC50 [2] | Ki [2] | IC50 (Substance-K receptor; cho) | IC50 (Leukotriene C4 synthase) | IC50 (Neutrophil elastase) | IC50 [3] | Ki [3]

COc1cc2c3cc1Oc1cc(ccc1O)C[C@@H]1c4c(cc(OC)c(O)c4Oc4ccc(cc4)C[C@@H]3N(C)CC2)CC[N+]1(C)C.[Cl-]
Not Active: IC50 [1] | Ki [1] | IC50 [2] | Ki [2] | IC50 (Substance-K receptor; cho) | IC50 (Leukotriene C4 synthase) | IC50 (Neutrophil elastase) | IC50 [3] | Ki [3]

NC(=O)N1c2ccccc2CCc2ccccc21
Not Active: IC50 [1] | Ki [1] | IC50 [2] | Ki [2] | IC50 (Substance-K receptor; cho) | IC50 (Leukotriene C4 synthase) | IC50 (Neutrophil elastase) | IC50 [3] | Ki [3]

O=C1CC[C@@H](N2C(=O)c3ccccc3C2=O)C(=O)N1
Not Active: IC50 [1] | Ki [1] | IC50 [2] | Ki [2] | IC50 (Substance-K receptor; cho) | IC50 (Leukotriene C4 synthase) | IC50 (Neutrophil elastase) | IC50 [3] | Ki [3]

Cc1onc(O)c1CC(N)C(=O)O (racemic) [(R,S)-AMPA]
Not Active: IC50 [1] | Ki [1] | IC50 [2] | Ki [2] | IC50 (Substance-K receptor; cho) | IC50 (Leukotriene C4 synthase) | IC50 (Neutrophil elastase) | IC50 [3] | Ki [3]

Nc1nc2c(ncn2COCCO)c(=O)[nH]1 [ACYCLOVIR]
Not Active: IC50 [1] | Ki [1] | IC50 [2] | Ki [2] | IC50 (Substance-K receptor; cho) | IC50 (Leukotriene C4 synthase) | IC50 (Neutrophil elastase)

CCOC(=O)C1=C(COCCN)NC(C)=C(C(=O)OC)C1c1ccccc1Cl (stereo not drawn) [AMLODIPINE]
0.09 µM: Ki ([1]; read-out: Ki)
Not Active: IC50 [2] | Ki [2] | IC50 (Substance-K receptor; cho) | IC50 (Leukotriene C4 synthase) | IC50 (Neutrophil elastase)
0.101 µM: IC50 ([1]; read-out: IC50)

CC(NC(C)(C)C)C(=O)c1cccc(Cl)c1 (stereo not drawn) [BUPROPION]
Not Active: IC50 [1] | Ki [1] | IC50 [2] | Ki [2] | IC50 (Substance-K receptor; cho) | IC50 (Leukotriene C4 synthase) | IC50 (Neutrophil elastase)

CN(C)CCCN1c2ccccc2Sc2ccc(Cl)cc21 [CHLORPROMAZINE]
1.66 µM: Ki ([2]; read-out: Ki)
3.21 µM: IC50 ([1]; read-out: IC50)
27.2 µM: IC50 (Substance-K receptor; read-out: IC50)
2.86 µM: Ki ([1]; read-out: Ki)
7.37 µM: IC50 ([2]; read-out: IC50)
Not Active: IC50 (Leukotriene C4 synthase) | IC50 (Neutrophil elastase)
9.07 µM: Ki (Substance-K receptor; read-out: Ki)

CNCCCN1c2ccccc2CCc2ccccc21 [DESIPRAMINE]
Not Active: IC50 [1] | Ki [1] | IC50 [2] | Ki [2] | IC50 (Substance-K receptor; cho) | IC50 (Leukotriene C4 synthase) | IC50 (Neutrophil elastase)

COc1cc2nc(N3CCN(C(=O)C4COc5ccccc5O4)CC3)nc(N)c2cc1OC (stereo not drawn) [DOXAZOSIN]
Not Active: IC50 [1] | Ki [1] | IC50 [2] | Ki [2] | IC50 (Substance-K receptor; cho) | IC50 (Leukotriene C4 synthase) | IC50 (Neutrophil elastase)

O=C(CCCN1CC=C(n2c(=O)[nH]c3ccccc32)CC1)c1ccc(F)cc1 [DROPERIDOL]
Not Active: IC50 [1] | Ki [1] | IC50 [2] | Ki [2] | IC50 (Substance-K receptor; cho) | IC50 (Leukotriene C4 synthase) | IC50 (Neutrophil elastase)

N=C(N)NCCN1CCCCCCC1 [GUANETHIDINE]
Not Active: IC50 [1] | Ki [1] | IC50 [2] | Ki [2] | IC50 (Substance-K receptor; cho) | IC50 (Leukotriene C4 synthase) | IC50 (Neutrophil elastase)

Cc1ccc(N(CC2=NCCN2)c2cccc(O)c2)cc1 [PHENTOLAMINE]
Not Active: IC50 [1] | Ki [1] | IC50 [2] | Ki [2] | IC50 (Substance-K receptor; cho) | IC50 (Leukotriene C4 synthase) | IC50 (Neutrophil elastase)
